Molecular target: human MGAT-2 (Homo sapiens (Human), UniProt Q3SYC2)
Assay: MGAT LCMS assay
Type: biochemical
Conditions: human MGAT-2 membranes expressed in Sf9 cells; 100 μM 2-oleoylglycerol, 15 μM oleoyl-coenzyme A; read-out: h-MGAT LCMS IC50
Description: The MGAT enzyme reactions were performed in Corning FALCON® 96-well polypropylene plates, in a total volume of 60 μL of 50 mM potassium phosphate buffer pH 7.4, containing a final concentration of 100 μM 2-oleoylglycerol, 15 μM oleoyl-coenzyme A and 0.0013 μg/μL human or mouse MGAT-2 or 0.0026 μg/μL rat recombinant MGAT-2 membranes expressed in Sf9 cells. Assay plates were run through a fully automated robotics system and shaken for 5 seconds every minute for a total 10 minutes. The reactions were then quenched with 120 μL of ice cold methanol containing 1 μg/mL 1,2-distearoyl-rac-glycerol as the internal standard. Plates were shaken for 2 minutes and spun down to remove protein precipitation. After the spin, samples were transferred to LC/MS compatible PCR plates. For LC/MS analysis, a ThermoFisher Surveyor pump, utilizing a Waters SYMMETRY® C8, 50×2.1 mm column, was used for the chromatography of enzyme products. The buffer system consists of 0.1% formic acid in water with a mobile phase consisting 0.1% formic acid in methanol. The shallow gradient is 90-100% mobile phase in 0.2 min with a total run time of 2.3 min. […]
The exemplified Examples disclosed below were tested in the MGAT2 in vitro assays described above and were found having MGAT2 inhibitory activity. Table 1 below lists human MGAT2 IC50 values measured for the following examples.

Sequence of human MGAT-2 (Q3SYC2 whole entry): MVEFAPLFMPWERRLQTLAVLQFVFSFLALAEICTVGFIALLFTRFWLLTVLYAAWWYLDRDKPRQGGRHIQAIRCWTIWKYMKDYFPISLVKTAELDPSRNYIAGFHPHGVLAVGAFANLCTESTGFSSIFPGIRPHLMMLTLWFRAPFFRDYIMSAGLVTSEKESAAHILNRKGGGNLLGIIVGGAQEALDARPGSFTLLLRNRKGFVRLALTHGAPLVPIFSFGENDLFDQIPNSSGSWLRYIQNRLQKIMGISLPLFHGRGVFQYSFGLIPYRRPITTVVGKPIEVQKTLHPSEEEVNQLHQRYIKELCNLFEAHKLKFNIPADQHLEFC

IC50: 5 nM
SMILES: O=C1N[C@@](c2ccc(OCCCC(F)(F)F)cc2F)(C(F)(F)F)CC(c2ccn(CC3CCC3)n2)=C1n1nn[nH]c1=O [Example 16]

— US10329273B2, “Tetrazolone-substituted dihydropyridinone MGAT2 inhibitors” (BRISTOL-MYERS SQUIBB COMPANY, priority 2014, dated 2019)
